{"source": "patent US20240368566A1", "about": "“PYK2-DERIVED PEPTIDES FOR INHIBITING INVADOPODIA-MEDIATED CANCER METASTASIS” (BAR-ILAN UNIVERSITY, priority 2023, published 2024)", "system": "MDA-MB-231 cells", "assay": "3D scratch wound assay in Matrigel", "format": "cell-based, human", "settings": "0.1, 1, 5 μM peptide; versus scrambled control", "procedure": "The 3D scratch wound assay was performed as described in Meirson et al. Targeting invadopodia-mediated breast cancer metastasis by using ABL kinase inhibitors. Oncotarget 2018; 9: 22158-22183. Briefly, 96 well Image Lock microtiter plates (Essen Bioscience) were coated with 100 μg/ml Matrigel (cat #354234; Corning, New-York, NY, USA). Following overnight incubation at 37° C., MDA-MB-231 cells were plated at a final concentration of 350,000 cells/ml and allowed to adhere for 12-16 h in the presence of Pyk2-PRR or control peptides. Following wounding of the bottom Matrigel-cells layer, a top layer of Matrigel was added to a final concentration of 2 mg/ml and allowed to polymerize for 30 min at 37° C. Pyk2-PRR or control scrambled peptides were then added again in DMEM/10% FBS to a final concentration of 0.1, 1, or 5 μM, with or without the MMP inhibitor GM6001 ([…]). Plates were placed in a 37° C. heated chamber, and images were collected using the IncuCyte® Zoom platform (Essen Bioscience; 20×, NA 0.60, air objective). Phase images were collected every one hour for a total of 12 h using the IncuCyte® acquisition software.", "data": [{"smiles": "C[C@H](NC(=O)[C@@H](N)[C@@H](C)O)C(=O)N[C@@H](Cc1ccccc1)C(=O)N[C@@H](CCC(N)=O)C(=O)N[C@@H](CCC(=O)O)C(=O)N1CCC[C@H]1C(=O)N1CCC[C@H]1C(=O)N1CCC[C@H]1C(=O)N[C@@H](CCCCN)C(=O)N1CCC[C@H]1C(=O)N[C@@H](CO)C(=O)N[C@@H](CCCNC(=N)N)C(=O)N1CCC[C@H]1C(=O)N[C@@H](CCCCN)C(=O)N[C@@H](Cc1ccc(O)cc1)C(=O)N[C@@H](CCCNC(=N)N)C(=O)N1CCC[C@H]1C(=O)N1CCC[C@H]1C(=O)N1CCC[C@H]1C(=O)O", "note": "[Pyk2-PRR2, TAFQEPPPKPSRPKYRPPP]", "values": [{"measurement": "invasion towards a scratch wound in 3D Matrigel", "value": "significantly reduced ability to close the gap"}]}]}
